These results are taken from US20240083861A1, “HSD17B13 INHIBITORS AND USES THEREOF” (FL2022-001, Inc., priority 2020, published 2024).

Counter-ions that a name gives are not always drawn.

This test concerns the target T1, Recombinant human HSD17B13 enzyme (Homo sapiens, UniProt Q7Z5P4).
T1 sequence (Q7Z5P4 20-300): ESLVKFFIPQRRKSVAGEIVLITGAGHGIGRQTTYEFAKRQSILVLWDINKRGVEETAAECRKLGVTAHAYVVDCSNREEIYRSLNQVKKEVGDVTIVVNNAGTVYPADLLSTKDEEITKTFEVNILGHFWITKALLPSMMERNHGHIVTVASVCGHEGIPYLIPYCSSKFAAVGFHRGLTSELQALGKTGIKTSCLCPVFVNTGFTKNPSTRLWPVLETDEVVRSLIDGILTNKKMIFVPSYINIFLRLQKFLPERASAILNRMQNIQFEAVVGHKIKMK
In words: HSD17b13 NAD(P)H-Glo biochemical assay. As to conditions: 50 uM estradiol, 1 mM NAD+, NAD(P)H-Glo luminescence; read-out: HSD17β13 IC50. A digest of the protocol: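 Recombinant human HSD17B13 in 20 mM Tris pH7.4 with 0.002% Tween-20 and 0.02% BSA was preincubated with inhibitor for 20 minutes at RT. The reaction ran 3 hours at 37° C with 50 uM estradiol and 1 mM NAD+ (final). NADH formed was detected by NAD(P)H-Glo luminescence after 1 hour at RT.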

Take `Cn1nc(-c2cc(C(F)(F)F)c(F)c(O)c2F)c2cnc(N3CC4CCC(C3)N4S(C)(=O)=O)nc21` [Compound 18.111, 2,6-Difluoro-3-(1-methyl-6-(8-(methylsulfony1)-3,8-diazabicyclo[3.2.1]octan-3-yl)-1H-pyrazolo[3,4-d]pyrimidin-3-y1)-5-(trifluoromethyl)phenol]: the half-maximal inhibitory concentration (IC50) is < 0.1 µM. For `Cn1nc(-c2cc(C(F)(F)F)c(F)c(O)c2F)c2cnc(N3CCN(S(C)(=O)=O)C4(COC4)C3)nc21` [Compound 18.112, 2,6-Difluoro-3-(1-methyl-6-(5-(methylsulfonyl)-2-oxa-5,8-diazaspiro[3.5]nonan-8-yl)-1H-pyrazolo[3,4-d]pyrimidin-3-y1)-5-(trifluoromethyl)phenol], the IC50 is < 0.1 µM.

`Cn1nc(-c2cc(C(F)(F)F)c(F)c(O)c2F)c2cnc(N3CCOC(C4CCCCC4)C3)nc21` (centres unmarked) [Compound 18.113, 3-(6-(2-Cyclohexylmorpholino)-1-methyl-1H-pyrazolo[3,4-d]pyrimidin-3-yl)-2,6-difluoro-5-(trifluoromethyl)phenol]: the half-maximal inhibitory concentration (IC50) is < 0.1 µM. Consider `Cn1nc(-c2cc(C(F)(F)F)c(F)c(O)c2F)c2cnc(N3CCN(C(=O)c4ccccc4)CC3)nc21` [Compound 18.114, (4-(3-(2,4-Difluoro-3-hydroxy-5-(trifluoromethyl)phenyl)-1-methyl-1H-pyrazolo[3,4-d]pyrimidin-6-y1)piperazin-1-yl)(phenyl)methanone], for which the half-maximal inhibitory concentration (IC50) was < 0.1 µM. To `Cn1nc(-c2cc(C(F)(F)F)c(F)c(O)c2F)c2cnc(N3CCN(C(=O)C4CCCCC4)CC3)nc21` [Compound 18.115, Cyclohexyl(4-(3-(2,4-difluoro-3-hydroxy-5-(trifluoromethyl)phenyl)-1-methyl-1H-pyrazolo[3,4-d]pyrimidin-6-yl)piperazin-1-yl)methanone] belongs < 0.1 µM; to `Cn1nc(-c2cc(C(F)(F)F)c(F)c(O)c2F)c2cnc(N3CCN(C(=O)Nc4ccccc4)CC3)nc21` [Compound 18.116, 4-(3-(2,4-Difluoro-3-hydroxy-5-(trifluoromethyl)phenyl)-1-methyl-1H-pyrazolo[3,4-d]pyrimidin-6-yl)-N-phenylpiperazine-1-carboxamide], < 0.1 µM.

On to `Cn1nc(-c2cc(C(F)(F)F)c(F)c(O)c2F)c2cnc(N(Cc3ccccc3)C3CC3)nc21` [Compound 18.117, 3-(6-(Benzyl(cyclopropyl)amino)-1-methyl-1H-pyrazolo[3,4-d]pyrimidin-3-y1)-2,6-difluoro-5-(trifluoromethyl)phenol], for which the IC50 is < 0.1 µM. In the case of `Cn1nc(-c2cc(C(F)(F)F)c(F)c(O)c2F)c2cnc(N3CCN(S(C)(=O)=O)C(C#N)C3)nc21` (centres unmarked) [Compound 18.118, 4-(3-(2,4-Difluoro-3-hydroxy-5-(trifluoromethyl)phenyl)-1-methyl-1H-pyrazolo[3,4-d]pyrimidin-6-yl)-1-(methylsulfonyl)piperazine-2-carbonitrile] it was < 0.1 µM; in that of `Cn1nc(-c2cc(C(F)(F)F)c(F)c(O)c2F)c2cnc(N3CCOC(C)(c4ccccc4)C3)nc21` (centres unmarked) [Compound 18.119, 2,6-Difluoro-3-(1-methyl-6-(2-methyl-2-phenylmorpholino)-1H-pyrazolo[3,4-d]pyrimidin-3-y1)-5-(trifluoromethyl)phenol], < 0.1 µM. In the case of `C[C@@H]1CN(C(=O)c2ccccc2)CCN1c1ncc2c(-c3cc(C(F)(F)F)c(F)c(O)c3F)nn(C)c2n1` [Compound 18.120, (R)-(4-(3-(2,4-Difluoro-3-hydroxy-5-(trifluoromethyl)phenyl)-1-methyl-1H-pyrazolo[3,4-d]pyrimidin-6-yl)-3-methylpiperazin-1-y1)(phenyl)methanone] it was < 0.1 µM. Regarding `Cn1nc(-c2cc(C(F)(F)F)c(F)c(O)c2F)c2cnc(N3CCN(C(=O)c4ccccn4)CC3)nc21` [Compound 18.121, (4-(3-(2,4-Difluoro-3-hydroxy-5-(trifluoromethyl)phenyl)-1-methyl-1H-pyrazolo[3,4-d]pyrimidin-6-yl)piperazin-1-yl)(pyridin-2-yl)methanone], the half-inhibitory concentration (IC50) is 0.1 to 1 µM. In the case of `Cn1nc(-c2cc(C(F)(F)F)c(F)c(O)c2F)c2cnc(N3CCN(C(=O)c4ccncc4)CC3)nc21` [Compound 18.122, (4-(3-(2,4-Difluoro-3-hydroxy-5-(trifluoromethyl)phenyl)-1-methyl-1H-pyrazolo[3,4-d]pyrimidin-6-y1)piperazin-1-yl)(pyridin-4-yl)methanone] it was 0.1 to 1 µM; in that of `Cn1nc(-c2cc(C(F)(F)F)c(F)c(O)c2F)c2cnc(N3CCN(C(=O)C4CC4)CC3)nc21` [Compound 18.123, Cyclopropyl(4-(3-(2,4-difluoro-3-hydroxy-5-(trifluoromethyl)phenyl)-1-methyl-1H-pyrazolo[3,4-d]pyrimidin-6-y1)piperazin-1-yl)methanone], < 0.1 µM. In the case of `Cn1nc(-c2cc(C(F)(F)F)c(F)c(O)c2F)c2cnc(N(Cc3ccccc3)C3CCC3)nc21` [Compound 18.124, 3-(6-(Benzyl(cyclobutyl)amino)-1-methyl-1H-pyrazolo[3,4-d]pyrimidin-3-y1)-2,6-difluoro-5-(trifluoromethyl)phenol] it was < 0.1 µM; in that of `Cn1nc(-c2cc(C(F)(F)F)c(F)c(O)c2F)c2cnc(N3CCN(C(=O)NC4CCCCC4)CC3)nc21` [Compound 18.125, N-Cyclohexyl-4-(3-(2,4-difluoro-3-hydroxy-5-(trifluoromethyl)phenyl)-1-methyl-1H-pyrazolo[3,4-d]pyrimidin-6-y1)piperazine-1-carboxamide], < 0.1 µM. To `Cn1nc(-c2cc(C(F)(F)F)c(F)c(O)c2F)c2cnc(N3CCN(C(=O)CN4CCOCC4)CC3)nc21` [Compound 18.126, 1-(4-(3-(2,4-Difluoro-3-hydroxy-5-(trifluoromethyl)phenyl)-1-methyl-1H-pyrazolo[3,4-d]pyrimidin-6-y1)piperazin-1-yl)-2-morpholinoethan-1-one] belongs 0.1 to 1 µM; to `Cn1nc(-c2cc(C(F)(F)F)c(F)c(O)c2F)c2cnc(N3CCN(C(=O)C4CCOCC4)CC3)nc21` [Compound 18.127, (4-(3-(2,4-Difluoro-3-hydroxy-5-(trifluoromethyl)phenyl)-1-methyl-1H-pyrazolo[3,4-d]pyrimidin-6-yl)piperazin-1-yl)(tetrahydro-2H-pyran-4-yl)methanone], 0.1 to 1 µM; to `Cn1nc(-c2cc(C(F)(F)F)c(F)c(O)c2F)c2cnc(N3CCN(C(=O)c4cccnc4)CC3)nc21` [Compound 18.128, (4-(3-(2,4-Difluoro-3-hydroxy-5-(trifluoromethyl)phenyl)-1-methyl-1H-pyrazolo[3,4-d]pyrimidin-6-yl)piperazin-1-yl)(pyridin-3-yl)methanone], 0.1 to 1 µM. Take `CC(=O)N1CCN(c2ncc3c(-c4cc(C(F)(F)F)c(F)c(O)c4F)nn(C)c3n2)C2(CC2)C1` [Compound 18.129, 1-(4-(3-(2,4-Difluoro-3-hydroxy-5-(trifluoromethyl)phenyl)-1-methyl-1H-pyrazolo[3,4-d]pyrimidin-6-yl)-4,7-diazaspiro[2.5]octan-7-yl)ethan-1-one]: the concentration for half-maximal inhibition (IC50) is < 0.1 µM. To `Cn1nc(-c2cc(C(F)(F)F)c(F)c(O)c2F)c2cnc(N3CCOCC3C3CCCCC3)nc21` (centres unmarked) [Compound 18.130, 3-(6-(3-Cyclohexylmorpholino)-1-methyl-1H-pyrazolo[3,4-d]pyrimidin-3-y1)-2,6-difluoro-5-(trifluoromethyl)phenol] belongs < 0.1 µM; to `Cn1nc(-c2cc(C(F)(F)F)c(F)c(O)c2F)c2cnc(N3CCO[C@@H](CO)C3)nc21` [Compound 18.131, (R)-2,6-Difluoro-3-(6-(2-(hydroxymethyl)morpholino)-1-methyl-1H-pyrazolo[3,4-d]pyrimidin-3-y1)-5-(trifluoromethyl)phenol], 0.1 to 1 µM. As to `Cn1nc(-c2cc(C(F)(F)F)c(F)c(O)c2F)c2cnc(N3CCOCC3)nc21` [Compound 18.132, 2,6-Difluoro-3-(1-methyl-6-morpholino-1H-pyrazolo[3,4-d]pyrimidin-3-y1)-5-(trifluoromethyl)phenol], the IC50 was < 0.1 µM.

In the case of `CN(c1ncc2c(-c3cc(C(F)(F)F)c(F)c(O)c3F)nn(C)c2n1)C1CCNCC1` [Compound 19, 2,6-Difluoro-3-(1-methyl-6-(methyl(piperidin-4-yl)amino)-1H-pyrazolo[3,4-d]pyrimidin-3-y1)-5-(trifluoromethyl)phenol], the concentration for half-maximal inhibition (IC50) lay within 0.1 to 1 µM. To `CC(=O)N1CCC(N(C)c2ncc3c(-c4cc(C(F)(F)F)c(F)c(O)c4F)nn(C)c3n2)CC1` [Compound 19.01, 1-(4-((3-(2,4-Difluoro-3-hydroxy-5-(trifluoromethyl)phenyl)-1-methyl-1H-pyrazolo[3,4-d]pyrimidin-6-y1)(methyl)amino)piperidin-1-yl)ethan-1-one] belongs < 0.1 µM. For `Cn1nc(-c2cc(C(F)(F)F)c(F)c(O)c2F)c2cnc(N(Cc3ccccc3)C3CCOCC3)nc21` [Compound 19.02, 3-(6-(Benzyl(tetrahydro-2H-pyran-4-yl)amino)-1-methyl-1H-pyrazolo[3,4-d]pyrimidin-3-y1)-2,6-difluoro-5-(trifluoromethyl)phenol], the IC50 was < 0.1 µM. In the case of `Cn1nc(-c2cc(C(F)(F)F)c(F)c(O)c2F)c2cnc(N3CCNC4(CCC4)C3)nc21` [Compound 20, 2,6-Difluoro-3-(1-methyl-6-(5,8-diazaspiro[3.5]nonan-8-yl)-1H-pyrazolo[3,4-d]pyrimidin-3-y1)-5-(trifluoromethyl)phenol HCl salt] it was < 0.1 µM.

Usually IC50 stands for the concentration at which inhibition is half-maximal.
